Laboratory results as given in PMC5988308, “Rhodanine derivatives as potent anti-HIV and anti-HSV microbicides” (PLoS ONE, 2018).
“And” between values parts separate entries of the source, which are not always exact repeats. Identical values can stand only once. Like-named read-outs stand apart in the source and are kept apart here.

How the values were obtained:
[1] = tested on: HIV-1 NL4.3 (CXCR4-tropic strain); experiment: Antiviral activity on TZM-bl cells infected with HIV-1 NL4.3 (CPRG assay); type: cell-based; conditions: TZM-bl cells
Procedure: After 48 h of incubation, the medium was removed and viral infection was quantified using a β-galactosidase (CPRG) assay (Roche). Twenty thousand TZM-bl cells/well were seeded in 96-well plates in complete DMEM supplemented with 30 μg/mL DEAE-dextran (Sigma-Aldrich). […] Vehicle (0.1% dimethyl sulfoxide [DMSO])-treated cells served as a negative control. […] After 2 days, viral infection was quantified using a CPRG assay (Roche). […] To evaluate the cell toxicity of the compounds, the metabolic XTT [2,3-bis-(2-methoxy-4-nitro-5-sulfophenyl)-2H-tetrazolium-5-carboxanilide] test (Sigma-Aldrich) was performed according to the manufacturer’s instructions.

[2] = biological target: bovine serum albumin (BSA) (Bos taurus, UniProt P02769); experiment: Albumin binding fluorimetric assay, BSA; conditions: fluorescence quenching, 10 μM BSA
Sequence of bovine serum albumin (BSA) (P02769 25-607): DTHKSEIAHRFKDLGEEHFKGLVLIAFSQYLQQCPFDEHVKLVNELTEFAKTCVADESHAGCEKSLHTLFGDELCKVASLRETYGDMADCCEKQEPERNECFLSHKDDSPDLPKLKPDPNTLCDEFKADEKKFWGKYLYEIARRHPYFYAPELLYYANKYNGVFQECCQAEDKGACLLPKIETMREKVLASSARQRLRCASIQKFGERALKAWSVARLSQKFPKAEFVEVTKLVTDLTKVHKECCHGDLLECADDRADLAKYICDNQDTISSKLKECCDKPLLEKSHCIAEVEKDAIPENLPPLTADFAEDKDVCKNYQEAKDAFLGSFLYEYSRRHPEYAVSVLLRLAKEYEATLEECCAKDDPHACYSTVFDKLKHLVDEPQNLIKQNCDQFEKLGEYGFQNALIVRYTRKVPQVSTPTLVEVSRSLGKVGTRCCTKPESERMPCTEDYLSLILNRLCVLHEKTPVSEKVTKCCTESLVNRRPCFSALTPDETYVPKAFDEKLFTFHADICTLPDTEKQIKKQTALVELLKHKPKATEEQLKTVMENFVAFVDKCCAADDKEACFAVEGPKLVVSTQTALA
Procedure: The binding of each compounds to HSA (human serum albumin) and BSA (bovine serum albumin) were monitored by fluorescence spectroscopy in order to determine the dissociation constant (Kd). A quantitative analysis of the potential interaction was performed by fluorimetric analysis using 96 multiwell plates: in each well a fixed concentration of HSA or BSA (10μM in phosphate buffer 1 mM), was added with different amounts of tested compound (0.1μM to 500μM by stock solutions in DMSO). Plates were gently shacked and after allowing 30 minutes at room temperature for equilibration, after excitation at 295nm, spectra were recorded from 300 to 400 nm with a Perkin Elmer EnVision Multilabel Reader 2014 spectrofluorimeter, spectra were acquired with EnVision Manager ver.1.13 software. The obtained fluorescence quenching percentages were plotted against drug concentrations and the relative Kd values were obtained using GraphPad software (version 6.0).

HSV-2 = HSV-2 plaque reduction assay on Vero cells; type: cell-based; conditions: for EC50 / EC90: Human alphaherpesvirus 2, Vero; for EC50: read-out: HSV-2 EC50; for EC90: read-out: HSV-2 EC90; for SI (CC50/EC50), HSV-2: Vero cells
Procedure: (§1) Clinical isolates of HSV-1 and HSV-2 were kindly provided by Prof. M. Pistello, University of Pisa, Italy. HSV-1 and HSV-2 strains were propagated and titrated by plaque assay on Vero cells. A HSV-2 strain with phenotypic resistance to acyclovir was generated by serial passage in the presence of increasing concentrations of acyclovir, as previously described.
(§2) The effect of the rhodanine derivatives on HSV infection was evaluated by plaque reduction assay. Vero cells were pre-plated 24 h in advance in 24-well plates at a density of […]. Increasing concentrations of compounds were mixed with HSV-2 (MOI 0.001 pfu/cell) or HSV-2 acyclovir resistant (MOI 0.001) or HSV-1 (MOI 0.0005) or and incubated for 1 hour at 37°C. The mixtures were subsequently added to the cells, which were then incubated at 37°C for 2 h. The virus inoculum was then removed and the cells washed and overlaid with a medium containing 1.2% methylcellulose (Sigma). After further incubation at 37°C for 24 h (HSV-2 and HSV-2 R Acy) or 48 h (HSV-1), cells were fixed and stained with 0.1% crystal violet in 20% ethanol and viral plaques counted. The effective concentration producing 50% reduction (EC50) and 90% reduction (EC90) in plaque formation was determined using Prism software by comparing drug-treated with wells treated with medium and solvent. The selectivity index (SI) was calculated by dividing the CC50 by the EC50 value.
(§3) All results are presented as the mean values from three independent experiments. The EC50 values for inhibition curves were calculated by regression analysis using the software GraphPad Prism (GraphPad Software, San Diego, California, U.S.A.) by fitting a variable slope-sigmoidal dose–response curve. Acyclovir was purchased from Sigma Aldrich (Milan, Italy).

[3] = tested on: recombinant HIV-1 integrase Y143R; experiment: Antiviral activity on human CD4+ T lymphocytes, integrase mutant Y143R; type: cell-based; conditions: Human immunodeficiency virus 1, read-out: Y143R EC50
[4] = tested on: HSV-2 acyclovir resistant; experiment: HSV-2 acyclovir resistant plaque reduction assay on Vero cells; type: cell-based; conditions: Human alphaherpesvirus 2, Vero, read-out: HSV-2 acyclovir resistant EC50
Procedure: as §1
as §2, with “The virus inoculum was then removed and the cells washed and overlaid with a medium containing 1.2% methylcellulose (Sigma).” left out, “The effective concentration producing 50% reduction (EC50) and 90% reduction (EC90) in plaque formation was determined using Prism software by comparing drug-treated with wells treated with medium and solvent.” left out
as §3, with “Acyclovir was purchased from Sigma Aldrich (Milan, Italy).” left out

HPV-16 PsVs = experiment: HPV-16 inhibition assay in HeLa cells; type: cell-based; conditions: up to 50 μM
Procedure: Plasmids and 293TT cells used for pseudovirus (PsV) production were kindly provided by John Schiller (National Cancer Institute, Bethesda, MD). 293TT cell line, derived from human embryonic kidney cells transformed with the simian virus 40 (SV40) large T antigen, was cultured in DMEM (Gibco-BRL, Gaithersburg, MD) supplemented with heat inactivated 10% FCS (Gibco- BRL), Glutamax-I 1% (Invitrogen, Carlsbad, CA) and nonessential amino acids 1% (Sigma Aldrich, Steinheim, Germany). HPV-16 PsVs were produced as described in Cagno et al 2015. 293TT cells were transfected with plasmid expressing the papillomavirus major and minor capsid proteins (L1 and L2, respectively), together with a reporter plasmid expressing GFP. Capsids were allowed to mature overnight in cell lysate; the clarified supernatant was then loaded on top of a density gradient of 27 to 33 to 39% Optiprep at room temperature for 3 h. The material was centrifuged at 28000 rpm for 16 h at 4°C in an SW41.1 rotor (Beckman Coulter, Inc., Fullerton, CA) and then collected by bottom puncture of the tubes. […] The L1 protein content of PsV stocks was determined by comparison with bovine serum albumin standards in Coomassie-stained SDS-polyacrylamide gels. […]

HIV-1 AD8 = experiment: Inhibition of antiviral activity by purified bovine serum albumin (TZM-bl, AD8); type: cell-based
Procedure: To confirm the binding of compound 2 to serum albumin, infection was performed in presence of different concentrations of purified bovine serum albumin (BSA, Sigma Aldrich) starting from the concentration that is usually present in FBS serum (35 mg/mL, 1X) and increasing to a five-fold concentration (175 mg/mL) up to a ten-fold concentration (350 mg/mL). […] After one hour, the mixture was added to 40.000 TZM-bl cells/well plated in DMEM supplemented with 50 μg/mL penicillin, 50 μg/mL streptomycin, 30 μg/mL DEAE-dextran and 10% FBS in a 96-well plate. After two days the infection was evaluated through a CPRG assay.

[5] = Human immunodeficiency virus 1, NL43, TZM-bl, pre-incubation in complete medium containing fetal bovine serum (FBS), read-out: NL4-3 EC50 a
[6] = Human immunodeficiency virus 1, NL43, TZM-bl, pre-incubation with virus without serum, read-out: NL4-3 EC50

Compound | melting point | EC50 [1, 5] [nM] | EC50 [1, 6] [nM] | Kd [2] [nM] | EC50 (HSV-2) [nM] | EC90 (HSV-2) [nM] | SI (CC50/EC50), HSV-2 (HSV-2) | EC50 [3] [nM] | EC50 [4] [nM] | antiviral activity on HPV-16 (HPV-16 PsVs) | reduction of antiviral activity with physiological BSA, compound at 400 nM (HIV-1 AD8; 1X = 35 mg/mL BSA, 400 nM) | loss of antiviral activity with physiological BSA, compound at 2 μM (HIV-1 AD8; 1X = 35 mg/mL BSA, 2 μM) [%] | antiviral activity with BSA concentration increased 5 to 10 folds (HIV-1 AD8; 175-350 mg/mL BSA, 400 nM) | EC50 ([1]; Human immunodeficiency virus 1, TZM-bl, pre-incubation with FBS, read-out: EC50 against NL4.3 strain in presence of serum) [nM] | EC50 ([1]; pre-incubation with virus without serum, read-out: NL4-3 EC50) [nM]
O=C(O)c1ccc(-c2ccc(/C=C3\SC(=S)N(CCCc4ccccc4)C3=O)o2)cc1O [Compound 9c, (Z)-2-hydroxy-4-(5-((4-oxo-3-(3-phenylpropyl)-2-thioxothiazolidin-5-ylidene)methyl)furan-2-yl)benzoic acid] | 248 °C (dec.) | 457 ± 11 | 15.3 ± 2 | 1050 ± 100 | 52 ± 21.2 | 422 ± 225 | 3936 | – | – | – | – | – | – | – | –
Cc1ccc(CCN2C(=O)/C(=C/c3ccc(-c4ccc(C(=O)O)c(O)c4)o3)SC2=S)cc1 [Compound 9b, (Z)-2-hydroxy-4-(5-((3-(4-methylphenethyl)-4-oxo-2-thioxothiazolidin-5-ylidene)methyl)furan-2-yl)benzoic acid] | 258 °C (dec.) | 457 ± 5 | 23 ± 4 | 1550 ± 300 | 4.89 ± 1.59 | 57.8 ± 22.6 | 2209 | – | – | – | – | – | – | – | –
O=C(O)c1ccc(-c2ccc(/C=C3\SC(=S)N(Cc4ccc(Cl)cc4)C3=O)o2)cc1O [Compound 2] | – | 190 ± 9 | 4 | 630 ± 100 | 11.9 ± 5.73 | 481 ± 299 | 9400 and 9403 | 8 ± 3 | 10.7 ± 6.34 | without any antiviral activity on HPV-16 | about 50% | 20 | complete loss of activity | – | –
O=C(O)c1ccc(-c2ccc(/C=C3\SC(=S)N(c4ccc(F)c(Cl)c4)C3=O)o2)cc1O [Compound 9e, (Z)-4-(5-((3-(3-chloro-4-fluorophenyl)-4-oxo-2-thioxothiazolidin-5-ylidene)methyl)furan-2-yl)-2-hydroxybenzoic acid] | – | 420 ± 7 | 30 ± 1 | 1070 ± 900 | 50.3 ± 10.5 | 206 ± 85.5 | >1988 | – | – | – | – | – | – | – | –
O=C(O)c1ccc(-c2ccc(/C=C3\SC(=S)N(Cc4ccc(F)cc4)C3=O)o2)cc1O [Compound 1] | – | 2951 ± 15 | ~50 | 680 ± 100 | 168 ± 143 | 2110 ± 918 | – | – | – | without any antiviral activity on HPV-16 | – | – | – | 3000 | 49.5 ± 2
CCc1ccc(CCN2C(=O)/C(=C/c3ccc(-c4ccc(C(=O)O)c(O)c4)o3)SC2=S)cc1 [Compound 9d, (Z)-4-(5-((3-(4-ethylphenethyl)-4-oxo-2-thioxothiazolidin-5-ylidene)methyl)furan-2-yl)-2-hydroxybenzoic acid] | 273 °C (dec.) | 228 ± 10 | 23.4 ± 3 | 990 ± 900 | 28.7 ± 7.11 | 140 ± 61.2 | 600 and 604.3 | – | – | – | – | – | – | – | –
O=C(O)c1ccc(-c2ccc(/C=C3\SC(=S)N(CCc4ccc(F)cc4)C3=O)o2)cc1O [Compound 9a, (Z)-4-(5-((3-(4-fluorophenethyl)-4-oxo-2-thioxothiazolidin-5-ylidene)methyl)furan-2-yl)-2-hydroxybenzoic acid] | 292 °C (dec.) | 204 ± 12 | 5.4 | 1080 ± 200 | 345 ± 168 | 426 ± 56.3 | >869 | – | – | – | – | – | – | – | –
O=C(O)c1ccc(-c2ccc(/C=C3\SC(=S)N(Cc4ccc(Cl)c(F)c4)C3=O)o2)cc1O [Compound 9f, (Z)-4-(5-((3-(4-chloro-3-fluorobenzyl)-4-oxo-2-thioxothiazolidin-5-ylidene)methyl)furan-2-yl)-2-hydroxybenzoic acid] | – | 570 ± 9 | 17 ± 2 | 1090 ± 900 | 26.4 ± 11.1 | 153 ± 159 | 298 | – | – | – | – | – | – | – | –
